Data taken from patent US8404726B2, “Activating agent for peroxisome proliferator activated receptor δ” (Nippon Chemiphar Co. Ltd., priority 2006, dated 2013).
One block for each compound: values may come before it.

Columns and labels:
[1] = biological target: T1, hPPARγ (LBD) (Homo sapiens, UniProt P37231); assay: PPAR activating function, GAL4-hPPARγ (LBD) luciferase reporter transfected into CV-1 cells; assay type: cell-based; details: control Rosiglitazone 10^−5 M = 100%
T1 construct: A receptor expression plasmid (pSG5-GAL4-hPPARα or γ or δ (LBD)); GAL4 (fusion partner); expressed in transfected cells; host or cells: CV-1 cells (ATCC)
T1 sequence (P37231 238-503 limits assumed): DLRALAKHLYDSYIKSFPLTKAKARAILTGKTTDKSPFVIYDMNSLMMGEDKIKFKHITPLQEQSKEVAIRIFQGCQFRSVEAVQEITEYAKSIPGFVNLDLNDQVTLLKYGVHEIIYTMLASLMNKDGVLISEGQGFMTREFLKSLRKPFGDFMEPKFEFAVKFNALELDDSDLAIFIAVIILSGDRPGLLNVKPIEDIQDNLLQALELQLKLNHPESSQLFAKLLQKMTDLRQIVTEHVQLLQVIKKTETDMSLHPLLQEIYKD
Description: (§1) The PPAR activating effect of the compound of the invention was determined by the following method:
(§2) A receptor expression plasmid (pSG5-GAL4-hPPARα or γ or δ (LBD)), a luciferase expression plasmid (MH100×4-TK-Luc), and a β-galactosidase expression plasmid (pCMX-β-GAL) are transfected into CV-1 cells (ATCC) (Kliewer, S. A. et al., (1992) Nature, 358: 771-774). After the gene transfer is conducted by utilizing a lipofection reagent (Lipofectamine 2000, Invitrogen), it is incubated for about 40 hours in the presence of a compound to be tested. The luciferase activity and β-GAL activity are measured on the soluble cells.
(§3) The luciferase activity is calibrated by the β-GAL activity. A relative ligand activity is calculated under the condition that the luciferase activity of the cells treated by GW-590735 for PPARα, Rosiglitazone for PPARγ, or GW-501516 for PPARδ is set to 100% to determine EC50 (see the below-mentioned Examples 14 and 15).
(§4) PPAR activating functions of test compounds (compounds of Examples) were measured in the manner described below.
as §2, with “(pUC8-MH100×4-TK-Luc),” for “(MH100×4-TK-Luc),”, “were” for “are”, “was” for “is”
(§5) The luciferase activity was calibrated by the β-GAL activity. A relative ligand activity was calculated under the condition that the luciferase activity of the cells treated by GW-590735 for PPARα, Rosiglitazone for […], or GW-501516 for PPARδ was set to 100% to determine EC50.
(§6) The tests were conducted in the same manner to Example 14 (1).

[2] = biological target: T2, hPPARα (LBD) (Homo sapiens, UniProt Q07869); assay: PPAR activating function, GAL4-hPPARα (LBD) luciferase reporter transfected into CV-1 cells; assay type: cell-based; details: control GW-590735 10^−6 M = 100%
T2 construct: A receptor expression plasmid (pSG5-GAL4-hPPARα or γ or δ (LBD)); GAL4 (fusion partner); expressed in transfected cells; host or cells: CV-1 cells (ATCC)
T2 sequence (Q07869 239-466 limits assumed): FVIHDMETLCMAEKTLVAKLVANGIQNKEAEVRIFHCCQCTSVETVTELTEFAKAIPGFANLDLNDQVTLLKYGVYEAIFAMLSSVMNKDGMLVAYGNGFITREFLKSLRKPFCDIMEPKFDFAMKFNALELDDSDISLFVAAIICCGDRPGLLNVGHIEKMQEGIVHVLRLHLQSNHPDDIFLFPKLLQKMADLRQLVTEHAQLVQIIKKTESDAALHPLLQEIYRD
Description: as §1, §2, §3, §4
as §2, with “(pUC8-MH100×4-TK-Luc),” for “(MH100×4-TK-Luc),”, “were” for “are”, “was” for “is”
as §5, §6

[3] = biological target: T3, hPPARδ (LBD) (Homo sapiens, UniProt Q03181); assay: PPAR activating function, GAL4-hPPARδ (LBD) luciferase reporter transfected into CV-1 cells; assay type: cell-based
T3 construct: A receptor expression plasmid (pSG5-GAL4-hPPARα or γ or δ (LBD)); GAL4 (fusion partner); expressed in transfected cells; host or cells: CV-1 cells (ATCC)
T3 sequence (Q03181 211-439 limits assumed): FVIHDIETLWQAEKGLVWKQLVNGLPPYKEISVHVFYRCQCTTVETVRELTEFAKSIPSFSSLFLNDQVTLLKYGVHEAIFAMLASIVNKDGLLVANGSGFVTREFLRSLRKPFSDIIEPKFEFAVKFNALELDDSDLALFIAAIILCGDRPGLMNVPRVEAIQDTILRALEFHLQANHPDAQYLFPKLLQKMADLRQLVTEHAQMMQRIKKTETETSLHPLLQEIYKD
Description: as §1, §2, §3, §4
as §2, with “(pUC8-MH100×4-TK-Luc),” for “(MH100×4-TK-Luc),”, “were” for “are”, “was” for “is”
as §5, §6

[4] = 10^−7M of the test compound, control GW-501516 10^−7 M = 100%, CV-1 cells
[5] = 10^−6 M of the test compound (Examples 3 and 8)

SMILES: CCCCCCc1nc(-c2ccc(C)cc2)sc1CCC(=O)c1ccc(CCC(=O)O)c(C)c1 [Example 1, 3-[4-[3-[4-Hexyl-2-(4-methylphenyl)thiazol-5-yl]propionyl]-2-methylphenyl]propionic acid]
PPAR activity PPARγ (relative value, control = 100%) ([1]; 10^−7 M of the test compound): Inactive | PPAR activity PPARα (relative value, control = 100%) ([2]; 10^−7 M of the test compound): Inactive

SMILES: CC(C)c1nc(-c2ccc(C(F)(F)F)cc2)sc1CCC(=O)c1ccc(NCC(=O)O)cc1 [Example 8, N-[4-[3-[4-Isopropyl-2-[4-(trifluoromethyl)phenyl]thiazol-5-yl]propionyl]phenyl]glycine]
PPAR activity PPARγ (relative value, control = 100%) [1, 5]: Inactive | PPAR activity PPARα (relative value, control = 100%) [2, 5]: Inactive

SMILES: Cc1cc(C(=O)CCc2nc(-c3ccccc3)oc2C(C)C)ccc1CCC(=O)O [Example 3, 3-[4-[3-(5-Isopropyl-2-phenyl-4-oxazolyl)propionyl]-2-methylphenyl]propionic acid]
PPAR activity PPARγ (relative value, control = 100%) [1, 5]: Inactive | PPAR activity PPARα (relative value, control = 100%) [2, 5]: Inactive

SMILES: Cc1cc(C(=O)CCc2sc(-c3ccc(C(F)(F)F)cc3)cc2C(C)C)ccc1CCC(=O)O [Example 2, 3-[4-[3-[3-Isopropyl-5-[4-(trifluoromethyl)phenyl]thiophen-2-yl]propionyl]-2-methylphenyl]propionic acid]
PPAR activity PPARγ (relative value, control = 100%) ([1]; 10^−7 M of the test compound): Inactive | PPAR activity PPARα (relative value, control = 100%) ([2]; 10^−7 M of the test compound): Inactive

SMILES: Cc1cc(C(=O)CCc2nc(-c3ccc(Cl)cc3O)oc2C(C)C)ccc1CCC(=O)O [Example 12, 3-[4-[3-[2-(4-Chloro-2-hydroxyphenyl)-5-isopropyl-4-oxazolyl]propionyl]-2-methylphenyl]propionic acid]
PPAR activity PPARγ: relative value (control = 100%) ([1]; 10^−7 M of the test compound): Inactive | PPAR activity PPARα: relative value (control = 100%) ([2]; 10^−7 M of the test compound): Inactive | PPAR activity PPARδ: relative value (control = 100%) [3, 4]: 93% | melting point: 141 to 144 °C

SMILES: CC(C)c1nc(-c2ccc(C(F)(F)F)cc2)sc1CCC(=O)c1ccc(N(C)CC(=O)O)cc1 [Example 7, N-[4-[3-[4-Isopropyl-2-[4-(trifluoromethyl)phenyl]thiazol-5-yl]propionyl]phenyl]-N-methylglycine]
PPAR activity PPARγ (relative value, control = 100%) ([1]; 10^−7 M of the test compound): Inactive | PPAR activity PPARα (relative value, control = 100%) ([2]; 10^−7 M of the test compound): Inactive

SMILES: Cc1cc(C(=O)C=Cc2sc(-c3ccc(C(F)(F)F)cc3)nc2C(C)C)ccc1C=CC(=O)O [Example 4, 3-[4-[3-[4-Isopropyl-2-[4-(trifluoromethyl)phenyl]thiazol-5-yl-]propenoyl]-2-methylphenyl]acrylic acid]
PPAR activity PPARγ (relative value, control = 100%) ([1]; 10^−7 M of the test compound): Inactive | PPAR activity PPARα (relative value, control = 100%) ([2]; 10^−7 M of the test compound): Inactive | PPAR activity PPARδ (relative value, control = 100%) [3, 4]: 22%

SMILES: CC(C)c1cc(-c2ccc(C(F)(F)F)cc2)sc1CCC(=O)c1ccc(N(C)CC(=O)O)cc1 [Example 9, N-[4-[3-[3-Isopropyl-5-[4-(trifluoromethyl)phenyl]thiophen-2-yl]propionyl]phenyl]-N-methylglycine]
PPAR activity PPARγ (relative value, control = 100%) ([1]; 10^−7 M of the test compound): Inactive | PPAR activity PPARα (relative value, control = 100%) ([2]; 10^−7 M of the test compound): Inactive

More lines, now with the values ahead:

PPAR activity PPARγ: relative value (control = 100%) ([1]; 10^−7 M of the test compound): Inactive | PPAR activity PPARα: relative value (control = 100%) ([2]; 10^−7 M of the test compound): Inactive | PPAR activity PPARδ: relative value (control = 100%) [3, 4]: 89%
SMILES: CCc1cc(C(=O)CCc2sc(-c3ccc(C(F)(F)F)cc3)nc2C(C)C)ccc1CCC(=O)O [Example 11, 3-[4-[3-[4-Isopropyl-2-[4-(trifluoromethyl)phenyl]-5-thiazolyl]propionyl]-2-ethylphenyl]propionic acid]

PPAR activity PPARγ (relative value, control = 100%) ([1]; 10^−7 M of the test compound): Inactive | PPAR activity PPARα (relative value, control = 100%) ([2]; 10^−7 M of the test compound): Inactive
SMILES: C=C(CCc1sc(-c2ccc(C(F)(F)F)cc2)nc1C(C)C)c1ccc(CCC(=O)O)c(C)c1 [Example 6, 3-[4-[1-[2-[4-Isopropyl-2-[4-(trifluoromethyl)phenyl]thiazol-5-yl]ethyl]vinyl]-2-methylphenyl]propionic acid]

PPAR activity PPARγ: relative value (control = 100%) ([1]; 10^−7 M of the test compound): Inactive | PPAR activity PPARα: relative value (control = 100%) ([2]; 10^−7 M of the test compound): Inactive | PPAR activity PPARδ: relative value (control = 100%) [3, 4]: 69% | melting point: 166 to 168 °C
SMILES: CC(C)c1oc(-c2ccc(Cl)cc2O)nc1CCC(=O)c1ccc(N(C)CC(=O)O)cc1 [Example 10, N-[4-[3-[2-(4-chloro-2-hydroxyphenyl)-5-isopropyl-4-oxazolyl]propionyl]phenyl]-N-methylglycine]

PPAR activity PPARγ (relative value, control = 100%) ([1]; 10^−7 M of the test compound): Inactive | PPAR activity PPARα (relative value, control = 100%) ([2]; 10^−7 M of the test compound): Inactive | agonist function for PPARδ (in words) ([3]; summary of Tables 38 and 39): particularly strong agonist function
SMILES: Cc1cc(C(=O)CCc2sc(-c3ccc(C(F)(F)F)cc3)nc2C(C)C)ccc1CCC(=O)O [Example 5, 3-[4-[3-[4-Isopropyl-2-[4-(trifluoromethyl)phenyl]thiazol-5-yl]propionyl]-2-methylphenyl]propionic acid]

PPAR activity PPARγ: relative value (control = 100%) ([1]; 10^−6 M of the test compound): Inactive | PPAR activity PPARα: relative value (control = 100%) ([2]; 10^−6 M of the test compound): Inactive | PPAR activity PPARδ: relative value (control = 100%) ([3]; 10^−6 M of the test compound, control GW-501516 10^−7 M = 100%, CV-1 cells): 62%
SMILES: Cc1cc(C(=O)CCc2nc(-c3ccccc3O)oc2C(C)C)ccc1CCC(=O)O [Example 13, 3-[4-[3-[5-Isopropyl-2-(2-hydroxyphenyl)-4-oxazolyl]propionyl]-2-methylphenyl]propionic acid]
